Measurements as given in PubChem BioAssay AID330 (DTP/NCI, 2004).
“And” between values parts separate entries of the source, which are not always exact repeats. Equal entries are not always repeated. Toxic doses and inconclusive results are not listed.

Tested on: P388 leukemia ip, CD2F1 mice, survival T/C
Experiment: NCI In Vivo Anticancer Drug Screen. Data for tumor model P388 Leukemia (intraperitoneal) in CD2F1 (CDF1) mice
Conditions: endpoint: median survival time, higher = longer survival
Procedure, shortened: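 Mice carrying the transplanted tumor received test compound or vehicle. Survival was recorded in each group, and the value is the treated-group measurement divided by that of the vehicle-treated control group.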

[1] = dose: 50.0 mg/kg/injection, schedule: Q01DX005 (ip), vehicle: saline with Tween-80
[2] = dose: 100.0 mg/kg/injection, schedule: Q01DX005 (ip), vehicle: saline with Tween-80
[3] = dose: 50.0 mg/kg/injection, schedule: Q01DX009 (ip), vehicle: saline with Tween-80
[4] = dose: 100.0 mg/kg/injection, schedule: Q01DX009 (ip), vehicle: saline with Tween-80
[5] = dose: 200.0 mg/kg/injection, schedule: Q01DX009 (ip), vehicle: saline with Tween-80
[6] = dose: 60.0 mg/kg/injection, schedule: Q01DX005 (ip), vehicle: saline with Tween-80
[7] = dose: 120.0 mg/kg/injection, schedule: Q01DX005 (ip), vehicle: saline with Tween-80
[8] = dose: 240.0 mg/kg/injection, schedule: Q01DX005 (ip), vehicle: saline with Tween-80
[9] = dose: 50.0 mg/kg/injection, schedule: Q01DX009 (ip), vehicle: saline
[10] = dose: 100.0 mg/kg/injection, schedule: Q01DX009 (ip), vehicle: saline
[11] = dose: 200.0 mg/kg/injection, schedule: Q01DX009 (ip), vehicle: saline
[12] = dose: 50.0 mg/kg/injection, schedule: Q01DX005 (ip), vehicle: saline
[13] = dose: 12.5 mg/kg/injection, schedule: Q01DX005 (ip), vehicle: saline
[14] = dose: 25.0 mg/kg/injection, schedule: Q01DX005 (ip), vehicle: saline
[15] = dose: 100.0 mg/kg/injection, schedule: Q04DX003 (ip), vehicle: saline
[16] = dose: 200.0 mg/kg/injection, schedule: Q04DX003 (ip), vehicle: saline
[17] = dose: 12.5 mg/kg/injection, schedule: Q01DX009 (ip), vehicle: saline with Tween-80
[18] = dose: 25.0 mg/kg/injection, schedule: Q01DX009 (ip), vehicle: saline with Tween-80
[19] = dose: 200.0 mg/kg/injection, schedule: Q01DX005 (ip), vehicle: saline with Tween-80

## Cc1cc(C)cc(C(=O)NC(c2ccncc2)C(NC(=O)c2cc(C)cc(C)c2)c2ccncc2)c1 (stereo unspecified)
dose: 25.0 mg/kg/injection, schedule: Q01DX005 (ip), vehicle: saline with Tween-80
  T/C: 92 % of control
[1]
  T/C: 90 % of control
[2]
  T/C: 99 % of control
dose: 400.0 mg/kg/injection, schedule: Q01DX005 (ip), vehicle: saline with Tween-80
  T/C: 92 % of control

## O=C(O)CCCCOC(C[N+](=O)[O-])C(Cl)(Cl)Cl (stereo unspecified)
[3]
  T/C: 100 % of control
[4]
  T/C: 95 % of control
[5]
  T/C: 99 % of control

## CCCn1cnc(C(=O)OC)c1O (tested in a mixture with another compound)
dose: 100.0 mg/kg/injection, schedule: Q04DX002 (ip), vehicle: water
  T/C: 101 % of control
dose: 200.0 mg/kg/injection, schedule: Q04DX002 (ip), vehicle: water
  T/C: 104 % of control
dose: 400.0 mg/kg/injection, schedule: Q04DX002 (ip), vehicle: water
  T/C: 101 % of control

## O=C1CCC(c2nc(=S)[nH][nH]2)N1Cc1ccccc1 (stereo unspecified)
[6]
  T/C: 101 % of control
[7]
  T/C: 102 % of control
[8]
  T/C: 101 % of control

## CCOC(=O)C(=O)Cc1ccc(C(=N)N)cc1
[9]
  T/C: 101 % of control
[10]
  T/C: 96 % of control
[11]
  T/C: 88 % of control

## O=C1C=C(Nc2ccccc2N=C2C(N3C4=CCc5ccccc5C4=Nc4ccccc43)=CC(=O)c3ccccc32)C(=O)c2ccccc21
[9]
  T/C: 89 % of control
[10]
  T/C: 91 % of control
[11]
  T/C: 100 % of control

## NC(CCC(=O)NCC(=O)O)C(=O)O (stereo unspecified)
[12]
  T/C: 94 % of control
dose: 100.0 mg/kg/injection, schedule: Q01DX005 (ip), vehicle: saline
  T/C: 104 % of control
dose: 200.0 mg/kg/injection, schedule: Q01DX005 (ip), vehicle: saline
  T/C: 102 % of control

## CCCCN(CCCC)C(=N)c1c2ccccc2nc2ccccc12
dose: 6.25 mg/kg/injection, schedule: Q01DX005 (ip), vehicle: saline
  T/C: 90 % of control
[13]
  T/C: 97 % of control
[14]
  T/C: 103 % of control

## NC(=O)c1c(N)ncnc1N
dose: 12.5 mg/kg/injection, schedule: Q04DX002 (ip), vehicle: saline with Tween-80
  T/C: 102 % of control
dose: 25.0 mg/kg/injection, schedule: Q04DX002 (ip), vehicle: saline with Tween-80
  T/C: 104 % of control
dose: 50.0 mg/kg/injection, schedule: Q04DX002 (ip), vehicle: saline with Tween-80
  T/C: 101 % of control

## C[CH2][Sn]([CH2]C)([n]1c2ccccc2c2c(C)c3cnccc3c(C)c21)[n]1c2ccccc2c2c(C)c3cnccc3c(C)c21
dose: 1.56 mg/kg/injection, schedule: Q01DX005 (ip), vehicle: Klucel (hydroxypropylcellulose) (HPC)
  T/C: 118 % of control
dose: 6.25 mg/kg/injection, schedule: Q01DX005 (ip), vehicle: Klucel (hydroxypropylcellulose) (HPC)
  T/C: 155 % of control

## NS(=O)(=O)c1cc2c(cc1Cl)NC(Cc1ccccc1)NS2(=O)=O (stereo unspecified)
[6]
  T/C: 100 % of control
[7]
  T/C: 93 % of control
[8]
  T/C: 93 % of control

## O=C(O)c1ccc[nH]c1=O
dose: 25.0 mg/kg/injection, schedule: Q04DX003 (ip), vehicle: saline
  T/C: 98 % of control
dose: 50.0 mg/kg/injection, schedule: Q04DX003 (ip), vehicle: saline
  T/C: 112 % of control
[15]
  T/C: 99 % of control
[16]
  T/C: 93 % of control

## C=Cc1cc(C)ccc1C(=O)OCCCCCCCCCCCC
dose: 50.0 mg/kg/injection, schedule: Q01DX009 (ip), vehicle: Klucel (hydroxypropylcellulose) (HPC)
  T/C: 98 % of control
dose: 100.0 mg/kg/injection, schedule: Q01DX009 (ip), vehicle: Klucel (hydroxypropylcellulose) (HPC)
  T/C: 101 % of control
dose: 200.0 mg/kg/injection, schedule: Q01DX009 (ip), vehicle: Klucel (hydroxypropylcellulose) (HPC)
  T/C: 98 % of control

## C=C1C(=O)O[C@@H]2[C@H]3C(C)=CC[C@H]3C(C)=CC[C@@H]12
dose: 100.0 mg/kg/injection, schedule: Q01DX001 (ip), vehicle: saline
  T/C: 106 % of control
dose: 200.0 mg/kg/injection, schedule: Q01DX001 (ip), vehicle: saline
  T/C: 103 % of control
dose: 400.0 mg/kg/injection, schedule: Q01DX001 (ip), vehicle: saline
  T/C: 107 % of control

## CCOC(=O)Nn1c(C)c(C(N)=O)c(C(=O)OC)c1C
[6]
  T/C: 100 % of control
[7]
  T/C: 96 % of control
[8]
  T/C: 103 % of control

## CC(C)OC(=O)Nc1ccccc1Cl
[17]
  T/C: 104 % of control
[18]
  T/C: 100 % of control
[3]
  T/C: 109 % of control

## C=COC(=O)C(Cc1ccc(Cl)cc1)NC(=O)OCc1ccccc1 (stereo unspecified)
dose: 100.0 mg/kg/injection, schedule: Q04DX002 (ip), vehicle: Klucel (hydroxypropylcellulose) (HPC)
  T/C: 97 % of control
dose: 200.0 mg/kg/injection, schedule: Q04DX002 (ip), vehicle: Klucel (hydroxypropylcellulose) (HPC)
  T/C: 91 % of control
dose: 400.0 mg/kg/injection, schedule: Q04DX002 (ip), vehicle: Klucel (hydroxypropylcellulose) (HPC)
  T/C: 95 % of control

## O=C(CCl)NCc1ccccc1
[15]
  T/C: 98 % of control
[16]
  T/C: 100 % of control

## O=C(CCCc1ccc(N(CCCl)CCCl)cc1)Nc1ncccn1
dose: 5.3 mg/kg/injection, schedule: Q01DX009 (ip), vehicle: Klucel (hydroxypropylcellulose) (HPC)
  T/C: 95 % of control
dose: 8.0 mg/kg/injection, schedule: Q01DX009 (ip), vehicle: Klucel (hydroxypropylcellulose) (HPC)
  T/C: 159 % of control
dose: 12.0 mg/kg/injection, schedule: Q01DX009 (ip), vehicle: Klucel (hydroxypropylcellulose) (HPC)
  T/C: 150 % of control
dose: 18.0 mg/kg/injection, schedule: Q01DX009 (ip), vehicle: Klucel (hydroxypropylcellulose) (HPC)
  T/C: 159 % of control

## CC1=C(C)CN2CC(C#N)=C(N)C2C1 (stereo unspecified)
[1]
  T/C: 107 % of control
[2]
  T/C: 96 % of control
[19]
  T/C: 96 % of control

## C/C=C/c1nn(-c2ccccc2)c2c1C(=O)CC(C)O2 (stereo unspecified)
[6]
  T/C: 96 % of control
[7]
  T/C: 95 % of control
[8]
  T/C: 96 % of control

## Nc1nc(-c2ccccn2)cc2cc(Cl)ccc12
[6]
  T/C: 99 % of control
[7]
  T/C: 115 % of control

## [Cl][Mn][Cl].[NH-]NP(=S)(N[NH-])Oc1ccccc1.[NH-]NP(=S)(N[NH-])Oc1ccccc1
[13]
  T/C: 99 % of control
[14]
  T/C: 100 % of control
[12]
  T/C: 108 % of control

## CC1CC(=O)Nc2nc(N)ncc21 (stereo unspecified)
[6]
  T/C: 102 % of control
[7]
  T/C: 106 % of control
[8]
  T/C: 108 % of control

## O=Cc1ccc(NCCCN2CCN(CCCNc3ccc(C=O)c4sc5ccccc5c(=O)c34)CC2)c2c(=O)c3ccccc3sc12
dose: 1.56 mg/kg/injection, schedule: Q01DX005 (ip), vehicle: saline with Tween-80
  T/C: 107 % of control
dose: 3.13 mg/kg/injection, schedule: Q01DX005 (ip), vehicle: saline with Tween-80
  T/C: 101 % of control
dose: 6.25 mg/kg/injection, schedule: Q01DX005 (ip), vehicle: saline with Tween-80
  T/C: 95 % of control
dose: 12.5 mg/kg/injection, schedule: Q01DX005 (ip), vehicle: saline with Tween-80
  T/C: 99 % of control
[1]
  T/C: 88 % of control

## CCN1c2ccccc2CC(C#N)(CCN(C)C)c2ccccc21 (stereo unspecified)
[17]
  T/C: 100 % of control
[18]
  T/C: 99 % of control
[3]
  T/C: 104 % of control

## O=C1OC(c2ccccc2)=N/C1=C\c1ccccc1
[18]
  T/C: 95 % of control
[3]
  T/C: 100 % of control
[4]
  T/C: 100 % of control
[5]
  T/C: 95 % of control

## CC(C)c1ccccc1N1C(=O)CC(Sc2ccccc2N)C1=O (stereo unspecified)
dose: 12.5 mg/kg/injection, schedule: Q01DX005 (ip), vehicle: Klucel (hydroxypropylcellulose) (HPC)
  T/C: 107 % of control
dose: 25.0 mg/kg/injection, schedule: Q01DX005 (ip), vehicle: Klucel (hydroxypropylcellulose) (HPC)
  T/C: 102 % of control
dose: 50.0 mg/kg/injection, schedule: Q01DX005 (ip), vehicle: Klucel (hydroxypropylcellulose) (HPC)
  T/C: 105 % of control and 90 % of control
dose: 200.0 mg/kg/injection, schedule: Q01DX005 (ip), vehicle: Klucel (hydroxypropylcellulose) (HPC)
  T/C: 90 % of control

## COc1ccc2[nH]cc(C#N)c(=O)c2c1
[1]
  T/C: 101 % of control
[2]
  T/C: 90 % of control
[19]
  T/C: 92 % of control

## O=C([O][Hg][CH2]C1COC([CH2][Hg][O]C(=O)c2ccccc2)CO1)c1ccccc1 (stereo unspecified)
[18]
  T/C: 120 % of control
dose: 25.0 mg/kg/injection, schedule: Q04DX003 (ip), vehicle: saline with Tween-80
  T/C: 104 % of control
[3]
  T/C: 120 % of control
dose: 50.0 mg/kg/injection, schedule: Q04DX003 (ip), vehicle: saline with Tween-80
  T/C: 90 % of control
dose: 100.0 mg/kg/injection, schedule: Q04DX003 (ip), vehicle: saline with Tween-80
  T/C: 95 % of control
